Assay results as given in ChEMBL document CHEMBL1140663, “Effect of the minor ABA metabolite 7'-hydroxy-ABA on Arabidopsis ABA 8'-hydroxylase CYP707A3” (Bioorg Med Chem Lett, 2007).

How the values were obtained:
[1] = biological target: T1, Abscisic acid 8'-hydroxylase 3 (Arabidopsis thaliana, UniProt Q9FH76); experiment: Inhibition of recombinant CYP707A3 at 5 uM
T1 sequence (Q9FH76 whole entry): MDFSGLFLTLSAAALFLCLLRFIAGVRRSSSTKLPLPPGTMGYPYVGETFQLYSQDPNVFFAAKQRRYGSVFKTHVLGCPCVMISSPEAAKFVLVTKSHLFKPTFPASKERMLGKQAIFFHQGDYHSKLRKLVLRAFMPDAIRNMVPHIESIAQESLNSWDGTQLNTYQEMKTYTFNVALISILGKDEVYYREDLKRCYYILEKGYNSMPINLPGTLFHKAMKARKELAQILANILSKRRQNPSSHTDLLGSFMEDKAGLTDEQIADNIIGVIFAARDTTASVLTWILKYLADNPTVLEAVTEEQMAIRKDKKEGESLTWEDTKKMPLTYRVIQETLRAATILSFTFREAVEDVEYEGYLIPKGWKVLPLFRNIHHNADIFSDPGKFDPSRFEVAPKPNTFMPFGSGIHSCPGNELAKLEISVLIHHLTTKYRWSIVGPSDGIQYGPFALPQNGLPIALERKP

[2] = biological target: T1, Abscisic acid 8'-hydroxylase 3; experiment: Inhibition of recombinant CYP707A3 at 50 uM

| inhibition at 5 µM [1] | inhibition at 50 µM [2] | Structure (SMILES) |
| --- | --- | --- |
| 15% | 63% | CC(=C/C(=O)O)/C=C/[C@@]1(O)C(C=O)=CC(=O)CC1(C)C |
| 0% | 24% | CC(=C/C(=O)O)/C=C/[C@H]1C(CO)=CC(=O)CC1(C)C |
| 0% | 0% | CC(=C/C(=O)O)/C=C/[C@@]1(O)C(CO)=CC(=O)CC1(C)C |
